Assays:
[1] = molecular target: T1, Transient receptor potential cation channel subfamily V member 1 (Homo sapiens, UniProt Q8NER1); test: Effect on cooperativity of Resiniferatoxin (RTX) binding (Hill coefficient); assay type: functional
[2] = molecular target: T2, Transient receptor potential cation channel subfamily V member 1 (Rattus norvegicus, UniProt O35433); test: Displacement of [3H]RTX from Vanilloid receptor in Rat spinal cord membranes; assay type: cell membranes, Membrane
[3] = molecular target: T1, Transient receptor potential cation channel subfamily V member 1; test: Inhibitory constant for RTX binding to human spinal cord; assay type: functional, tissue-based
[4] = molecular target: T2, Transient receptor potential cation channel subfamily V member 1; test: Inhibitory constant for RTX binding to rat spinal cord; assay type: functional
[5] = test system: Rattus norvegicus; test: Desensitisation against RTX-induced ear edema formation 24 hr r post-administration; assay type: functional
[6] = molecular target: T1, Transient receptor potential cation channel subfamily V member 1; test: Inhibition of [3H]- RTX binding to Vanilloid receptors from human spinal cord
[7] = molecular target: T2, Transient receptor potential cation channel subfamily V member 1; test: Displacement of [3H]RTX binding from Vanilloid receptor of rat dorsal Root Ganglion (DRG) membranes; assay type: cell membranes, Membrane
[8] = molecular target: T2, Transient receptor potential cation channel subfamily V member 1; test: Inhibition of [3H]- RTX binding to vanilloid receptor of rat urinary bladder; assay type: functional
[9] = The effect on the Cooperativity of Resiniferatoxin binding, as Quantitated by the Hill Coefficients.

T1 sequence (Q8NER1 whole entry): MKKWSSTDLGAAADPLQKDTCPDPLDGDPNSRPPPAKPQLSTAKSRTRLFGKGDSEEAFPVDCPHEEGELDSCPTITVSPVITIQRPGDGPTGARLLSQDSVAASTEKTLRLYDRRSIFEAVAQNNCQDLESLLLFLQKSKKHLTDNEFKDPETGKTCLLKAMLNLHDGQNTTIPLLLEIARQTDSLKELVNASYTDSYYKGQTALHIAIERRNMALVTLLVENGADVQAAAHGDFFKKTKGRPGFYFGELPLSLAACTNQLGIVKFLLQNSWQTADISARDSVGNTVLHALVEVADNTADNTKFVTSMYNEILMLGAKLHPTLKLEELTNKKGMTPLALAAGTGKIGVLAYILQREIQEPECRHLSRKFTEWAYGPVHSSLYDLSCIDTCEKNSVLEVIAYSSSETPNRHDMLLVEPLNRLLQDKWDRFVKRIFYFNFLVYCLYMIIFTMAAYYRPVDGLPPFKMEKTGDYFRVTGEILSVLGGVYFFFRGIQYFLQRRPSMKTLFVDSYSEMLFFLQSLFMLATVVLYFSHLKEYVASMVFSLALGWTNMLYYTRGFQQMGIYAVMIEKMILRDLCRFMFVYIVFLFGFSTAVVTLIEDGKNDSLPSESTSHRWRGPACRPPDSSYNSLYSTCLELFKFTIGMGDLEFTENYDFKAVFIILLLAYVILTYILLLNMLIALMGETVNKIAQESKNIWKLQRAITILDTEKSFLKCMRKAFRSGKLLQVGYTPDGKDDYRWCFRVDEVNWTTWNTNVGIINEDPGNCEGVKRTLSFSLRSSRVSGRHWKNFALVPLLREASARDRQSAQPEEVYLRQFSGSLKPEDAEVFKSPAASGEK
T2 sequence (O35433 whole entry): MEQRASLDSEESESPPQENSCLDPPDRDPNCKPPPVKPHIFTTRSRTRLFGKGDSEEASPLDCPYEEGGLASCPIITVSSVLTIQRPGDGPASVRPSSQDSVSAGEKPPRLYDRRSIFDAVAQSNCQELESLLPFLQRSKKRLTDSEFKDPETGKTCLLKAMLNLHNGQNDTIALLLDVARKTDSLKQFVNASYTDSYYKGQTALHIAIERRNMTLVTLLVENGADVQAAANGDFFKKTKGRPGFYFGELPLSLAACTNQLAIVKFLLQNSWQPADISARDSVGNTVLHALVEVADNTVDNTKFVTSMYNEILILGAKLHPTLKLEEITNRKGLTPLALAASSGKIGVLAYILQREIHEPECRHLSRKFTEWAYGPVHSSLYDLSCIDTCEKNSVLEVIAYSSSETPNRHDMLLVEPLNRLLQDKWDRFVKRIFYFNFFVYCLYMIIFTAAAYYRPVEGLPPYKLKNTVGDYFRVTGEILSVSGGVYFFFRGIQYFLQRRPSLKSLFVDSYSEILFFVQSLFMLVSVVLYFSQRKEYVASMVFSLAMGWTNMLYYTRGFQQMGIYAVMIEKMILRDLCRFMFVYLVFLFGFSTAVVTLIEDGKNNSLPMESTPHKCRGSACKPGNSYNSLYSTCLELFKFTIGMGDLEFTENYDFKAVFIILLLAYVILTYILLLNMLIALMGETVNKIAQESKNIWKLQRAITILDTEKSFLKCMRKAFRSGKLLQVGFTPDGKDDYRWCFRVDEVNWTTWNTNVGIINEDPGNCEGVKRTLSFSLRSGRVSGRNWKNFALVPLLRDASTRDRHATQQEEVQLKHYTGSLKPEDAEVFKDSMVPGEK

Row | Structure (SMILES) | Hill coefficient [1] | Ki [2] [nM] | further results
1 | COc1cc(CNC(=O)CCCC/C=C/C(C)C)ccc1O | 2 |  | 
2 | COc1cc(CC(=O)OCC2=C[C@H]3[C@@H]4C(C)(C)[C@]4(OC(C)=O)C(=O)[C@@H](C)[C@]3(O)[C@@H]3C=C(C)C(=O)[C@@]3(O)C2)ccc1O |  | > 10000 | 
3 | COc1cc(CC(=O)OCC2=C[C@H]3[C@@H]4C(C)(C)[C@]4(OC(C)=O)[C@H](OC(=O)Cc4ccccc4)[C@@H](C)[C@]3(O)[C@@H]3C=C(C)C(=O)[C@@]3(O)C2)ccc1OC(C)=O | 1 | 1700 | 
4 | COc1cc(CC(=O)OCC2=C[C@H]3[C@@H]4C(C)(C)[C@]4(OC(C)=O)[C@H](OC(=O)C4CCCCC4)[C@@H](C)[C@]3(O)[C@@H]3C=C(C)C(=O)[C@@]3(O)C2)ccc1O | 1 | 2200 | 
5 | COc1cc(CC(=O)OCC2=C[C@H]3[C@@H]4C(C)(C)[C@]4(OC(C)=O)[C@H](OC(=O)CC4CCCCC4)[C@@H](C)[C@]3(O)[C@@H]3C=C(C)C(=O)[C@@]3(O)C2)ccc1O | 1.1 | 400 | 
6 | COc1cc(CC(=O)OCC2=C[C@H]3[C@@H]4C(C)(C)[C@]4(OC(=O)Cc4ccccc4)C(=O)[C@@H](C)[C@]3(O)[C@@H]3C=C(C)C(=O)[C@@]3(O)C2)ccc1O | 0.9 | 1300 | 
7 | COc1cc(CC(=O)OCC2=C[C@H]3[C@@H]4C(C)(C)[C@]4(OC(C)=O)[C@H](OC(=O)Cc4ccccc4)[C@@H](C)[C@]3(O)[C@@H]3C=C(C)[C@H](O)[C@@]3(O)C2)ccc1O |  | > 10000 | 
8 | COc1cc(CC(=O)OCC2=C[C@H]3[C@@H]4C(C)(C)[C@]4(OC(C)=O)[C@H](OC(=O)c4ccc(N=[N+]=[N-])cc4)[C@@H](C)[C@]3(O)[C@@H]3C=C(C)C(=O)[C@@]3(O)C2)ccc1O | 1.5 | 200 | 
9 | COc1cc(CC(=O)OCC2=C[C@H]3[C@@H]4C(C)(C)[C@]4(OC(=O)Cc4ccccc4)[C@H](OC(=O)Cc4ccccc4)[C@@H](C)[C@]3(O)[C@@H]3C=C(C)C(=O)[C@@]3(O)C2)ccc1O | 1.3 | 300 | 
10 | COc1cc(CC(=O)OCC2=C[C@H]3[C@@H]4C(C)(C)[C@]4(OC(C)=O)[C@H](OC(=O)c4ccccc4)[C@@H](C)[C@]3(O)[C@@H]3C=C(C)C(=O)[C@@]3(O)C2)ccc1O | 1.7 | 400 | 
11 | COc1cc(CC(=O)OCC2=C[C@H]3[C@@H]4C(C)(C)[C@]4(OC(C)=O)[C@H](OC(=O)Cc4ccccc4)[C@@H](C)[C@]3(O)[C@@H]3C=C(C)C(=O)[C@@]3(O)C2)ccc1O | 1.1 |  | Ki [3]: 0.45 nM; Ki [4]: 0.054 nM; ED50 [5]: 10 mg/kg; Ki [6]: 6400 nM; Ki [7]: 600 nM; Ki [8]: 2000 nM
12 | Oc1cc2c(cc1O)CN(C(=S)NCCc1ccc(Cl)cc1)CCC2 [CAPSAZEPINE] | 2.4 | 1200 | 
13 | C=C(C)[C@]12C[C@@H](C)[C@@]34O[C@](Cc5ccccc5)(O[C@@H]1[C@@H]3C=C(COC(=O)Cc1ccc(O)c(OC)c1)C[C@]1(O)C(=O)C(C)=CC41)O2 (single isomer, unassigned) [RESINIFERATOXIN] |  | 0.02 | Hill coefficient [9]: 2.3
14 | COc1cc(CC(=O)OCC2=C[C@H]3[C@@H]4C(C)(C)[C@]4(OC(C)=O)[C@H](OC(=O)Cc4ccc(N=[N+]=[N-])cc4)[C@@H](C)[C@]3(O)[C@@H]3C=C(C)C(=O)[C@@]3(O)C2)ccc1O | 1.4 | 200 | 

— ChEMBL document CHEMBL1129077 (J Med Chem, 1996)
